Laboratory results from ChEMBL document CHEMBL2424558, “Synthesis and biological evaluation of novel quinazoline derivatives obtained by Suzuki CC coupling” (2013).
Converted amounts (≈) assume the structure as drawn.

Assays:
Type in all cases: functional
[1] = test system: Mycobacterium tuberculosis; test: Antimycobacterial activity against Mycobacterium tuberculosis H37Rv; settings: for MIC: Mycobacterium tuberculosis, H37Rv
[2] = test system: Candida albicans; test: Antifungal activity against Candida albicans MTCC 183; settings: for MIC: Candida albicans, MTCC 183
[3] = test system: Aspergillus niger; test: Antifungal activity against Aspergillus niger MTCC 282; settings: for MIC: Aspergillus niger, MTCC 282
[4] = test system: Klebsiella pneumoniae; test: Antibacterial activity against Klebsiella pneumoniae MTCC 109
[5] = test system: Pseudomonas aeruginosa; test: Antibacterial activity against Pseudomonas aeruginosa MTCC 741
[6] = test system: Escherichia coli; test: Antibacterial activity against Escherichia coli MTCC 739
[7] = test system: Bacillus cereus; test: Antibacterial activity against Bacillus cereus MTCC 430
[8] = test system: Staphylococcus aureus; test: Antibacterial activity against Staphylococcus aureus MTCC 96
[9] = Klebsiella pneumoniae, MTCC 109
[10] = Pseudomonas aeruginosa, MTCC 741

| Compound | inhibition (INH) [1] [%] | MIC [1] [µg/mL] | inhibition zone (IZ) [2] [mm] | MIC [2] [µg/mL] | inhibition zone (IZ) [3] [mm] | MIC [3] [µg/mL] | inhibition zone (IZ) [4] [mm] | MIC [4, 9] [µg/mL] | inhibition zone (IZ) [5] [mm] | MIC [5, 10] [µg/mL] | inhibition zone (IZ) [6] [mm] | MIC ([6]; Escherichia coli, MTCC 739) [µg/mL] | inhibition zone (IZ) [7] [mm] | MIC ([7]; Bacillus cereus, MTCC 430) [µg/mL] | inhibition zone (IZ) [8] [mm] | MIC ([8]; Staphylococcus aureus, MTCC 96) [µg/mL] | also measured |
| --- | --- | --- | --- | --- | --- | --- | --- | --- | --- | --- | --- | --- | --- | --- | --- | --- | --- |
| Cc1cccc(Oc2nc(-c3ccc(NC(=O)Nc4ccc(Cl)cc4)cc3)nc3ccccc23)c1 | 98 | 100 (≈ 208 µM) | 21 | 100 (≈ 208 µM) | 26 | 200 (≈ 416 µM) | 23 | 62.5 (≈ 130 µM) | 24 | 50 (≈ 104 µM) | 27 | 62.5 (≈ 130 µM) | 24 | 100 (≈ 208 µM) | 25 | 50 (≈ 104 µM) |  |
| CCOc1ccc(NC(=S)Nc2ccc(-c3nc(Oc4cccc(C)c4)c4ccccc4n3)cc2)cc1 | 95 | 200 (≈ 395 µM) | 22 | 50 (≈ 98.7 µM) | 26 | 25 (≈ 49.3 µM) | 23 | 25 (≈ 49.3 µM) | 26 | 12.5 (≈ 24.7 µM) | 24 | 62.5 (≈ 123 µM) | 19 | 100 (≈ 197 µM) | 22 | 12.5 (≈ 24.7 µM) |  |
| COc1ccc(NC(=S)Nc2ccc(-c3nc(Oc4cccc(C)c4)c4ccccc4n3)cc2)cc1 | 97 | 100 (≈ 203 µM) | 28 | 12.5 (≈ 25.4 µM) | 21 | 50 (≈ 102 µM) | 24 | 50 (≈ 102 µM) | 27 | 25 (≈ 50.8 µM) | 27 | 25 (≈ 50.8 µM) | 24 | 50 (≈ 102 µM) | 25 | 12.5 (≈ 25.4 µM) |  |
| CC[C@@H](CO)NCCN[C@@H](CC)CO [ETHAMBUTOL] | 99 | 3.12 (≈ 15.3 µM) |  |  |  |  |  |  |  |  |  |  |  |  |  |  |  |
| Cc1cccc(Oc2nc(-c3ccc(NC(=S)Nc4ccc(Cl)cc4)cc3)nc3ccccc23)c1 | 98 | 25 (≈ 50.3 µM) | 28 | 25 (≈ 50.3 µM) | 24 | 12.5 (≈ 25.1 µM) | 27 | 25 (≈ 50.3 µM) | 26 | 12.5 (≈ 25.1 µM) | 27 | 25 (≈ 50.3 µM) | 27 | 50 (≈ 101 µM) | 24 | 12.5 (≈ 25.1 µM) |  |
| Cc1cccc(Oc2nc(-c3ccc(NC(=S)Nc4ccc(Br)cc4)cc3)nc3ccccc23)c1 | 99 | 12.5 (≈ 23.1 µM) | 27 | 12.5 (≈ 23.1 µM) | 23 | 25 (≈ 46.2 µM) | 27 | 12.5 (≈ 23.1 µM) | 25 | 25 (≈ 46.2 µM) | 25 | 50 (≈ 92.3 µM) | 26 | 12.5 (≈ 23.1 µM) | 29 | 6.25 (≈ 11.5 µM) |  |
| CO[C@H]1/C=C/O[C@@]2(C)Oc3c(C)c(O)c4c(O)c(c(/C=N/N5CCN(C)CC5)c(O)c4c3C2=O)NC(=O)/C(C)=C\C=C\[C@H](C)[C@H](O)[C@@H](C)[C@@H](O)[C@@H](C)[C@H](OC(C)=O)[C@@H]1C [RIFAMPIN] | 99 | 0.25 (≈ 0.304 µM) |  |  |  |  |  |  |  |  |  |  |  |  |  |  |  |
| Cc1cccc(Oc2nc(-c3ccc(NC(=O)Nc4ccc(F)cc4)cc3)nc3ccccc23)c1 | 97 | 62.5 (≈ 135 µM) | 26 | 12.5 (≈ 26.9 µM) | 23 | 25 (≈ 53.8 µM) | 21 | 200 (≈ 431 µM) | 23 | 100 (≈ 215 µM) | 23 | 62.5 (≈ 135 µM) | 21 | 100 (≈ 215 µM) | 22 | 200 (≈ 431 µM) |  |
| NC(=O)c1cnccn1 [PYRAZINAMIDE] | 99 | 6.25 (≈ 50.8 µM) |  |  |  |  |  |  |  |  |  |  |  |  |  |  |  |
| OC(Cn1cncn1)(Cn1cncn1)c1ccc(F)cc1F [FLUCONAZOLE] |  |  | 31 | 12.5 (≈ 40.8 µM) | 30 | 6.25 (≈ 20.4 µM) |  |  |  |  |  |  |  |  |  |  |  |
| CC1(C)S[C@@H]2[C@H](NC(=O)[C@H](N)c3ccccc3)C(=O)N2[C@H]1C(=O)O [AMPICILLIN] |  |  |  |  |  |  | 33 | 25 (≈ 71.5 µM) | 28 | 25 (≈ 71.5 µM) | 31 | 6.25 (≈ 17.9 µM) | 28 | 12.5 (≈ 35.8 µM) | 30 | 12.5 (≈ 35.8 µM) |  |
| CCOc1ccc(NC(=O)Nc2ccc(-c3nc(Oc4cccc(C)c4)c4ccccc4n3)cc2)cc1 | 96 | 100 (≈ 204 µM) | 27 | 50 (≈ 102 µM) | 23 | 50 (≈ 102 µM) | 25 | 25 (≈ 51 µM) | 26 | 50 (≈ 102 µM) | 24 | 200 (≈ 408 µM) | 24 | 25 (≈ 51 µM) | 22 | 50 (≈ 102 µM) |  |
| GENTAMICIN |  |  |  |  |  |  | 30 |  |  |  |  |  | 30 |  |  |  | MIC [4]: 25 µg/mL; MIC [5]: 12.5 µg/mL; MIC [6]: 12.5 µg/mL; MIC [7]: 6.25 µg/mL; MIC [8]: 6.25 µg/mL |
| Cc1ccc(NC(=O)Nc2ccc(-c3nc(Oc4cccc(C)c4)c4ccccc4n3)cc2)cc1 | 95 | 200 (≈ 434 µM) | 24 | 50 (≈ 109 µM) | 21 | 200 (≈ 434 µM) | 24 | 50 (≈ 109 µM) | 27 | 25 (≈ 54.3 µM) | 24 | 25 (≈ 54.3 µM) | 24 | 250 (≈ 543 µM) | 23 | 100 (≈ 217 µM) |  |
| COc1ccc(NC(=O)Nc2ccc(-c3nc(Oc4cccc(C)c4)c4ccccc4n3)cc2)cc1 | 94 | 62.5 (≈ 131 µM) | 25 | 25 (≈ 52.5 µM) | 23 | 50 (≈ 105 µM) | 26 | 200 (≈ 420 µM) | 26 | 25 (≈ 52.5 µM) | 24 | 200 (≈ 420 µM) | 22 | 50 (≈ 105 µM) | 23 | 25 (≈ 52.5 µM) |  |
| Cc1ccc(NC(=S)Nc2ccc(-c3nc(Oc4cccc(C)c4)c4ccccc4n3)cc2)cc1 | 94 | 100 (≈ 210 µM) | 23 | 50 (≈ 105 µM) | 18 | 200 (≈ 420 µM) | 21 | 50 (≈ 105 µM) | 23 | 50 (≈ 105 µM) | 23 | 50 (≈ 105 µM) | 21 | 200 (≈ 420 µM) | 22 | 50 (≈ 105 µM) |  |
| Cc1cccc(Oc2nc(-c3ccc(NC(=S)Nc4ccc(F)cc4)cc3)nc3ccccc23)c1 | 96 | 50 (≈ 104 µM) | 25 | 6.25 (≈ 13 µM) | 22 | 50 (≈ 104 µM) | 24 | 100 (≈ 208 µM) | 25 | 50 (≈ 104 µM) | 27 | 25 (≈ 52 µM) | 27 | 200 (≈ 416 µM) | 24 | 25 (≈ 52 µM) |  |
| Cc1cccc(Oc2nc(-c3ccc(NC(=O)Nc4ccccc4)cc3)nc3ccccc23)c1 | 95 | 250 (≈ 560 µM) | 23 | 250 (≈ 560 µM) | 22 | 200 (≈ 448 µM) | 19 | 100 (≈ 224 µM) | 21 | 62.5 (≈ 140 µM) | 23 | 100 (≈ 224 µM) | 20 | 250 (≈ 560 µM) | 22 | 200 (≈ 448 µM) |  |
| Cc1cccc(Oc2nc(-c3ccc(NC(=O)Nc4ccc(Br)cc4)cc3)nc3ccccc23)c1 | 99 | 25 (≈ 47.6 µM) | 24 | 50 (≈ 95.2 µM) | 22 | 62.5 (≈ 119 µM) | 24 | 50 (≈ 95.2 µM) | 25 | 25 (≈ 47.6 µM) | 27 | 62.5 (≈ 119 µM) | 28 | 12.5 (≈ 23.8 µM) | 24 | 12.5 (≈ 23.8 µM) |  |
| Cc1cccc(Oc2nc(-c3ccc(NC(=S)Nc4ccccc4)cc3)nc3ccccc23)c1 | 95 | 100 (≈ 216 µM) | 25 | 200 (≈ 432 µM) | 23 | 50 (≈ 108 µM) | 22 | 200 (≈ 432 µM) | 25 | 50 (≈ 108 µM) | 26 | 250 (≈ 540 µM) | 24 | 50 (≈ 108 µM) | 27 | 200 (≈ 432 µM) |  |
| NNC(=O)c1ccncc1 [ISONIAZID] |  | 0.2 (≈ 1.46 µM) |  |  |  |  |  |  |  |  |  |  |  |  |  |  |  |
